Experiments:
[1] = test system: MphR(A) or MphR(A)-NLS / plant promoters PETRpON4, PETRpON8; assay: EpON erythromycin-inducible GUS expression in Nicotiana tabacum SR1 suspension cells; assay type: cell-based; details: 250 μg/ml erythromycin
Experimental: The transformation protocol of SR1 cells was adapted from Wu and Feng (1999, Plant Cell Reports 18: 381-386). In brief, 200 mg of exponentially growing SR1 cells were harvested by centrifugation. The cells were incubated for 15 min. in 2% DMSO and washed twice in fresh medium. Cells were subsequently resuspended in electroporation buffer (5 mM CaCl2; 10 mM NaCl2; 0.4 M sucrose; 8.7% glycerol; 4 mM ascorbate; 10 mM HEPES; pH 6.8) and mixed with desired DNA at a concentration of 0.2 μg/μl. The cell-DNA mixture was incubated for 10 min. on ice electroporated at 700 V/cm and 980 μF using a BioRad Gene Pulser and appropriate cuvettes. Following electroporation, cells were kept on ice for 10 min. and deplasmolyzed by 4 subsequent additions of 100 μl LS medium at 5 min. intervals. Transformation rates 20%±5% are typically reached with SR1 cells using this modified protocol.
Transformed SR1 cells were incubated at 25° C. for 48 h while rocking at 110 rpm. […] Cells were lysed in extraction buffer (50 mM NaH2PO4; 10 mM EDTA; 0.1% Triton X-100; 0.1% sodium lauryl sarcosine; 10 mM β-mercaptoethanol; pH 7.0) by freezing them in liquid nitrogen and grinding them using a micropestle. Soluble protein extract was collected by centrifugation for 20 min. at 15,000 rpm and 4° C. Protein concentration of plant extracts was determined using a Bradford assay (Bradford, 1976, Anal. Biochem. 72: 248-254). The GUS expression assay was performed following a modified protocol by Jefferson et al. (1987; EMBO J. 6: 3901-3907). In brief, 100 μl of cell extract were incubated in extraction buffer (see above) also containing 1 mM of the β-glucuronidase substrate 4-methylumbelliferyl glucuronide (MUG; Duchefa, NL). The reaction mixture was incubated at 37° C. and 100 μl aliquots were removed at appropriate time intervals and the reaction stopped by addition of 1.9 ml of 0.2 M K2CO3. The fluorescence time course was determined using typical 365 nm/455 nm excitation/emission profiles and a Shimadzu RF-5001 PC spectrofluorophotometer.
For regulated expression in transgenic plants and plant tissue culture an inducible rather than a repressible gene regulation system would be desirable. This enables induction of transgene […] by addition of the antibiotic rather than by its withdrawal. We therefore constructed an erythromycin-inducible plant gene regulation system (EpON) which consisted of the E. coli MphR(A) repressor protein (SEQ ID NO: 4) which binds, in the absence of macrolide antibiotics, to the ETR binding module cloned downstream of a strong constitutive plant promoter (PCaMV35S). Binding of MphR(A) to the ETR module blocks PCaMV35S-mediated target gene expression. […]

[2] = test system: PETR1-YFP and PhCMV*-1-CFP expression units; assay: Dual-regulated vector pDuoRex9 (pWW94) in CHO-Triplet42 by fluorescence microscopy; assay type: cell-based; details: transient transfection into CHO-Triplet42

CC[C@H]1OC(=O)[C@H](C)[C@@H](O[C@H]2C[C@@](C)(OC)[C@@H](O)[C@H](C)O2)[C@H](C)[C@@H](O[C@@H]2O[C@H](C)C[C@H](N(C)C)[C@H]2O)[C@](C)(O)C[C@@H](C)C(=O)[C@H](C)[C@@H](O)[C@]1(C)O [Erythromycin]
GUS activity upon addition of erythromycin ([1]; pBP8/pBP15 (MphR(A)-NLS / PETRpON4)): 313.5±39.6 pmoles 4-MU min^−1 mg^−1 protein^−1
GUS activity upon addition of erythromycin ([1]; pBP8/pBP35 (MphR(A)-NLS / PETRpON8)): 283.6±24.7 pmoles 4-MU min^−1 mg^−1 protein^−1
GUS activity upon addition of erythromycin ([1]; pBP9/pBP15 (MphR(A) / PETRpON4)): 305.2±24.9 pmoles 4-MU min^−1 mg^−1 protein^−1
GUS activity upon addition of erythromycin ([1]; pBP9/pBP35 (MphR(A) / PETRpON8)): 276.7±34.1 pmoles 4-MU min^−1 mg^−1 protein^−1
YFP and CFP expression from pDuoRex9 (fluorescence microscopy) [2]: independent on/off-regulation
